# T1: human CCR1 (Homo sapiens, UniProt P32246)
# T1 sequence (P32246 1-355): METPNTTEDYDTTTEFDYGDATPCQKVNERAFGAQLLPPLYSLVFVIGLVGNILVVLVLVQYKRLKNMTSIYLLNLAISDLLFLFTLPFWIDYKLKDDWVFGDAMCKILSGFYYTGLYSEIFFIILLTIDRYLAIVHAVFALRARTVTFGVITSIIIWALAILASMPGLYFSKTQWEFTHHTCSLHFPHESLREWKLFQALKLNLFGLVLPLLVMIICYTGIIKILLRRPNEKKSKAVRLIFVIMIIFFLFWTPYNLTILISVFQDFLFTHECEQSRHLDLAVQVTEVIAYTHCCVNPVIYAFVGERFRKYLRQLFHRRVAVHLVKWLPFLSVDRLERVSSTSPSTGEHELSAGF
# Molecular target: T1, human CCR1
# Test: not given
# Details: result in words; cited from earlier work
row,Molecule,signalling through human CCR1
1,MCP-1: human chemokine that binds human CCR1 with low affinity; a ligand for CCR2,neither ligand is able to signal
2,"MIP-1β: human chemokine that binds human CCR1 with low affinity (protein, UniProt P13236 24-92, looked up) C-C motif chemokine 4: APMGSDPPTACCFSYTARKLPRNFVVDYYETSSLCSQPAVVFQTKRSKQVCADPSESWVQEYVYDLELN",neither ligand is able to signal

# Molecular target: T1, human CCR1
# Test: In vitro assay for CCR1 receptor antagonists: competition with 125I-MIP-1α or 125I-RANTES on 293MR cells
# Format: binding
# Parameters: expressed in transfected cells
# Details: Table 2
# Procedure: Human CCR1 cDNA was provided through collaboration with Dr. Stephen Peiper of the University of Louisville, Ky. […] The plasmid also contained hygromycin and puromycin resistance genes. Calcium phosphate transfection standard protocols were used to insert the plasmid into the HEK293 cells. Cells were selected for stable expression of CCR1 using hygromycin and puromycin selection.
# • 130 mM NaCl, 5 mM KCl, 1 mM MnCl2, 50 mM Tris, 30 μg/ml bacitracin, 0.1% BSA, pH 7.4.
# The stock solution of the compounds was 1 mM in 100% DMSO. […] A serial 1:3 dilution from the highest concentration was made with assay buffer. Six concentrations of each compound were usually being screened to generate a dose curve from which the Ki value was determined.
# Assays were performed in 96-well v-bottom microtiter plates in a total volume of 100 μl. […] The cells were washed once in PBS and resuspended in the assay buffer to about 1.1×10^5 cells/mL.
# The radioactivities in each well were determined by scintillation counting following addition of 50 μl of scintillation fluid.
# The nonspecific binding was defined by the binding in the presence of 100 nM of unlabeled MIP-1α or RANTES.
# The dose curves of each compound with 6 concentration points were generated and IC50 values were determined by fitting the data to the log-logit equation (linear) with an EXCEL spread-sheet.
row,Molecule,Ki
1,CC1CN(Cc2ccc(F)cc2)CCN1C(=O)COc1ccc(Cl)c([N+](=O)[O-])c1 (stereo not drawn) [compound 16],21 nM
2,C[C@@H]1CN(C(=O)COc2ccc(Cl)cc2C(=O)NCCN)[C@@H](C)CN1Cc1ccc(F)cc1 [compound 30],9 nM
3,C[C@@H]1CN(Cc2ccc(F)cc2)[C@@H](CN2CCOCC2)CN1C(=O)COc1ccc(Cl)cc1 [compound 49],109 nM
4,C[C@@H]1CN(C(=O)COc2cccc(C#N)c2)[C@@H](C)CN1Cc1ccc(F)cc1 [compound 32],68 nM
5,CC(c1cc(Cl)ccc1OCC(=O)N1C[C@@H](C)N(Cc2ccc(F)cc2)C[C@@H]1C)n1ccnc1 (stereo partly drawn) [compound 29],6 nM
6,COC(=O)c1ccc(OC)cc1OCC(=O)N1C[C@@H](C)N(Cc2ccc(F)cc2)C[C@@H]1C [compound 34],31 nM
7,C[C@@H]1CN(C(=O)COc2ccc3ccc(=O)oc3c2)[C@@H](C)CN1Cc1ccc(F)cc1 [compound 39],18 nM
8,CC(C)C(=O)Nc1cc(Cl)ccc1OCC(=O)N1C[C@@H](C)N(Cc2ccc(F)cc2)C[C@@H]1C [compound 21],13 nM
9,CC(=O)Nc1cc(Cl)ccc1OCC(=O)N1CCN(Cc2ccc(F)cc2)CC1C (stereo not drawn) [compound 19],5 nM
10,CCC1CN(Cc2ccc(F)cc2)CCN1C(=O)COc1ccc(Cl)cc1 (stereo not drawn) [compound 44],15 nM
11,C[C@@H]1CN(C(=O)COc2ccc(Cl)cc2NC(=O)CNC(N)=O)[C@@H](C)CN1Cc1ccc(F)cc1 [compound 27],2 nM
12,C[C@@H]1CN(C(=O)CC(CN)c2ccc(Cl)cc2)[C@@H](C)CN1Cc1ccc(F)cc1 (stereo partly drawn) [compound 41],56 nM
13,CC(=O)Nc1ccccc1OCC(=O)N1CCN(Cc2ccc(F)cc2)CC1C (stereo not drawn) [compound 31],106 nM
14,CCN(C)C(C)c1cc(Cl)ccc1OCC(=O)N1C[C@@H](C)N(Cc2ccc(F)cc2)C[C@@H]1C (stereo partly drawn) [compound 28],18 nM
15,CC1CN(C(=O)COc2ccc(Cl)cc2N)C(C)CN1Cc1ccc(F)cc1 (stereo not drawn) [compound 15],9 nM
16,CCCC(C)Nc1cc(Cl)ccc1OCC(=O)N1C[C@@H](C)N(Cc2ccc(F)cc2)C[C@@H]1C (stereo partly drawn) [compound 18],87 nM
17,C[C@@H]1CN(Cc2ccc(F)cc2)[C@@H](CC#N)CN1C(=O)COc1ccc(Cl)cc1 [compound 48],38 nM

row,Molecule,Ki
1,C[C@@H]1CN(C(=O)COc2ccc(Cl)cc2C(N)=O)[C@@H](C)CN1Cc1ccc(F)cc1 [compound 47],3 nM
2,C=CC(O)CC1CN(Cc2ccc(F)cc2)CCN1C(=O)COc1ccc(Cl)cc1 (stereo not drawn) [compound 36],172 nM
3,CCCC(=O)Nc1cc(Cl)ccc1OCC(=O)N1C[C@@H](C)N(Cc2ccc(F)cc2)C[C@@H]1C [compound 20],7 nM
4,C[C@@H]1CN(C(=O)COc2ccc(Cl)cc2N2C(=O)c3ccccc3C2=O)[C@@H](C)CN1Cc1ccc(F)cc1 [compound 40],64 nM
5,C[C@@H]1CN(C(=O)COc2ccc(Cl)cc2CNC(N)=O)[C@@H](C)CN1Cc1ccc(F)cc1 [compound 14],2 nM
6,O=C(COc1ccc(Cl)cc1)N1CCN(Cc2ccc(F)cc2)CC12CC2 [compound 46],74 nM
7,CCC[C@@H]1CN(Cc2ccc(F)cc2)CCN1C(=O)COc1ccc(Cl)cc1 [compound 45],75 nM
8,COCC(=O)Nc1cc(Cl)ccc1OCC(=O)N1C[C@@H](C)N(Cc2ccc(F)cc2)C[C@@H]1C [compound 22],3 nM
9,C[C@@H]1CN(C(=O)COc2ccc(Cl)cc2NS(C)(=O)=O)[C@@H](C)CN1Cc1ccc(F)cc1 [compound 24],6 nM
10,Cc1cc(O)cc(OCC(=O)N2C[C@H](C)N(Cc3ccc(F)cc3)C[C@H]2C)c1 [compound 33],5 nM
11,O=C(COc1ccc(Cl)cc1)N1CCN(Cc2ccc(F)cc2)C(C(F)(F)F)C1 (stereo not drawn) [compound 37],148 nM
12,CC(=O)NCC(CC(=O)N1C[C@@H](C)N(Cc2ccc(F)cc2)C[C@@H]1C)c1ccc(Cl)cc1 (stereo partly drawn) [compound 42],26 nM
13,C[C@@H]1CN(C(=O)CC(NS(C)(=O)=O)c2ccc(Cl)cc2)[C@@H](C)CN1Cc1ccc(F)cc1 (stereo partly drawn) [compound 43],32 nM
14,C[C@@H]1CN(C(=O)COc2ccc(Cl)cc2NCc2ccccc2)[C@@H](C)CN1Cc1ccc(F)cc1 [compound 17],42 nM
15,CC(O)C1CN(Cc2ccc(F)cc2)CCN1C(=O)COc1ccc(Cl)cc1 (stereo not drawn) [compound 35],13 nM
16,C[C@@H]1CN(C(=O)COc2ccc(Cl)cc2NC(=O)CN)[C@@H](C)CN1Cc1ccc(F)cc1 [compound 26],1 nM
17,COC(=O)CCC(=O)Nc1cc(Cl)ccc1OCC(=O)N1C[C@@H](C)N(Cc2ccc(F)cc2)C[C@@H]1C [compound 23],5 nM
